In this assay the target is T1, KCNQ 2/3 channels (HEK293 cells stably expressing human KCNQ2 and KCNQ3 subunits) (Homo sapiens, UniProt O43525+O43526).
T1 construct: expressed in transfected cells; host or cells: HEK293
As to the kind of experiment: KCNQ2/3 channel activation, thallium flux FLIPR assay with BTC-AM dye. It is filed as cell-based. The note with it: for Emax: HEK293, maximum response relative to the response produced by 10 μM retigabine (set at 100%), read-out: Max. %; for EC50: HEK293 cells expressing human KCNQ2 and KCNQ3, thallium flux, FLIPR. As to the method: The following example describes the assay that can be used to identify compounds that activate KCNQ 2/3 channels.
HEK293 cells stably expressing human KCNQ2 and KCNQ3 subunits were seeded in 96-well, black-walled, clear-bottomed, poly-D-lysine coated plates (BD Biosciences, Bedford, Mass.) at a density of 1×10^5 cells per well 24 hours before the assay. On the assay day, BTC-AM dye (Invitrogen, Carlsbad, Calif.) was loaded into the cells by replacing the cell culture medium with 55 μL/well of 3 μg/mL dye in DPBS. Dye loading was allowed to proceed for 2 hours at room temperature and then cells were washed twice with 50 μL/well of assay buffer (in mM: 10 HEPES pH 7.3, 5 glucose, 140 Na-gluconate, 2.5 K-gluconate, 3.6 Ca-gluconate, 2 MgSO4, 0.1 Ouabain) to remove unloaded dye. Cells were incubated in 50 μL of assay buffer before loading onto a FLIPR system (Molecular Devices, Sunnyvale, Calif.). Various concentrations of compounds to be assayed were added to the cells in 50 μL of assay buffer and incubated for 4 minutes. The fluorescence signal was initiated by adding 100 μL of assay buffer containing 6 mM TlNO3 and 10 mM K2SO4. Fluors were excited using the 488-nm line of an argon laser and emission was filtered using a 540±30 nm bandpass filter. Fluorescent signals were recorded for 3 minutes. Sums of the responses over basal responses were plotted versus concentrations of test compounds to obtain an EC50 value. The maximum response for each test compound was determined relative to the response produced by 10 μM retigabine. The maximum response of retigabine at 10 μM was set at 100%.

A value given as a limit tells only on which side of the number the result lay.

The term EC50 denotes the concentration that produces a half-maximal response. High values mean a less potent agent, low ones a more potent agent.

As for `O=C(Cc1ccc(F)cc1)Nn1nc(-c2ccccc2)c2ccsc2c1=O` [Example 32, 2-(4-fluorophenyl)-N-(7-oxo-4-phenylthieno[2,3-d]pyridazin-6(7H)-yl)acetamide], the Emax is 46% and the EC50 was in the range of 1000 to 10000 nM.

For the compound `O=C(Cc1cc(F)cc(F)c1)Nn1nc(-c2ccccc2)c2ccsc2c1=O` [Example 33, 2-(3,5-difluorophenyl)-N-(7-oxo-4-phenylthieno[2,3-d]pyridazin-6(7H)-yl)acetamide], the Emax was determined as 140% and the EC50 lay within 1000 to 10000 nM.

Regarding `CC(C)c1nn(NC(=O)CC23CC4CC(C)(CC(C)(C4)C2)C3)c(=O)c2ccccc12` [Example 34, 2-[3,5-dimethyl-1-adamantyl]-N-(4-isopropyl-1-oxophthalazin-2(1H)-yl)acetamide], the Emax was determined as 184% and the concentration giving a half-maximal response (EC50) was 100 to 500 nM.

As for `O=C(Cc1cc(F)cc(F)c1)Nn1nc(-c2ccccc2)c2cc(F)ccc2c1=O` [Example 35, 2-(3,5-difluorophenyl)-N-(6-fluoro-1-oxo-4-phenylphthalazin-2(1H)-yl)acetamide], the Emax came out at 192% and the EC50 was in the range of 100 to 500 nM.

`O=C(Cc1ccc(Cl)cc1)Nn1nc(-c2ccccc2)c2cc(F)ccc2c1=O` [Example 36, 2-(4-chlorophenyl)-N-(6-fluoro-1-oxo-4-phenylphthalazin-2(1H)-yl)acetamide]: the Emax is 155% and the concentration giving a half-maximal response (EC50) was in the range of 100 to 500 nM.

For `O=C(CC12CC3CC(CC(C3)C1)C2)Nn1nc(-c2ccccc2)c2cc(F)ccc2c1=O` [Example 37, 2-(1-adamantyl)-N-(6-fluoro-1-oxo-4-phenylphthalazin-2(1H)-yl)acetamide], the Emax was 179% and the EC50 is less than 100 nM.

As to `Cc1nn(NC(=O)Cc2cc(F)cc(F)c2)c(=O)c2ccccc12` [Example 38, 2-(3,5-difluorophenyl)-N-(4-methyl-1-oxophthalazin-2(1H)-yl)acetamide], the Emax is 126% and the EC50 was greater than 10000 nM.

As for `O=C(CC1(c2ccc(Cl)cc2)CC1)Nn1nc(C(F)(F)F)c2ccccc2c1=O` [Example 39, 2-[1-(4-chlorophenyl)cyclopropyl]-N-[1-oxo-4-(trifluoromethyl)phthalazin-2(1H)-yl]acetamide], the Emax was found to be 11% and the 50% effective concentration (EC50) was greater than 10000 nM.

`O=C(CC1(c2ccc(Cl)cc2)CCC1)Nn1nc(C(F)(F)F)c2ccccc2c1=O` [Example 40, 2-[1-(4-chlorophenyl)cyclobutyl]-N-[1-oxo-4-(trifluoromethyl)phthalazin-2(1H)-yl]acetamide]: the Emax stood at 7% and the concentration for a half-maximal effect (EC50) was greater than 10000 nM.

On to `CC(C)(CC(=O)Nn1nc(C(F)(F)F)c2ccccc2c1=O)c1ccc(Cl)cc1` [Example 42, 3-(4-chlorophenyl)-3-methyl-N-[1-oxo-4-(trifluoromethyl)phthalazin-2(1H)-yl]butanamide], for which the Emax is 103% and the EC50 was 100 to 500 nM.

`O=C(CC1CCCC1)Nn1nc(C(F)(F)F)c2ccccc2c1=O` [Example 43, 2-cyclopentyl-N-[1-oxo-4-(trifluoromethyl)phthalazin-2(1H)-yl]acetamide]: the Emax worked out at 112% and the EC50 is 100 to 500 nM.

Turning to `O=C(Nn1nc(C(F)(F)F)c2ccccc2c1=O)C(F)(F)c1ccccc1` [Example 44, 2,2-difluoro-N-[1-oxo-4-(trifluoromethyl)phthalazin-2(1H)-yl]-2-phenylacetamide], the Emax amounted to 35% and the concentration giving a half-maximal response (EC50) was greater than 10000 nM.

As to `O=C(CC1CCC1)Nn1nc(C(F)(F)F)c2ccccc2c1=O` [Example 45, 2-cyclobutyl-N-[1-oxo-4-(trifluoromethyl)phthalazin-2(1H)-yl]acetamide], the Emax came out at 84% and the EC50 was 1000 to 10000 nM.

Consider `CN(C)c1ccc(CC(=O)Nn2nc(C(F)(F)F)c3ccccc3c2=O)cc1` [Example 47, 2-[4-(dimethylamino)phenyl]-N-[1-oxo-4-(trifluoromethyl)phthalazin-2(1H)-yl]acetamide], for which the Emax came out at 7% and the EC50 was greater than 10000 nM.

With `CC(C)(C)CC(=O)Nn1nc(C(F)(F)F)c2ccccc2c1=O` [Example 48, 3,3-dimethyl-N-[1-oxo-4-(trifluoromethyl)phthalazin-2(1H)-yl]butanamide], the Emax stood at 77% and the EC50 fell in the range of 1000 to 10000 nM.

As for `CS(=O)(=O)c1ccc(CC(=O)Nn2nc(C(F)(F)F)c3ccccc3c2=O)cc1` [Example 49, 2-[4-(methylsulfonyl)phenyl]-N-[1-oxo-4-(trifluoromethyl)phthalazin-2(1H)-yl]acetamide], the Emax is 3% and the EC50 was greater than 10000 nM.

Turning to `O=C(CCc1ccccc1)Nn1nc(C(F)(F)F)c2ccccc2c1=O` [Example 50, N-[1-oxo-4-(trifluoromethyl)phthalazin-2(1H)-yl]-3-phenylpropanamide], the Emax was 116% and the EC50 is greater than 10000 nM.

Turning to `O=C(CC1(c2ccccc2)CC1)Nn1nc(C(F)(F)F)c2ccccc2c1=O` [Example 51, N-[1-oxo-4-(trifluoromethyl)phthalazin-2(1H)-yl]-2-(1-phenylcyclopropyl)acetamide], the Emax was -2% and the EC50 was greater than 10000 nM.

Take `CC(C)(CC(=O)Nn1nc(C(F)(F)F)c2ccccc2c1=O)c1ccccc1` [Example 52, 3-methyl-N-[1-oxo-4-(trifluoromethyl)phthalazin-2(1H)-yl]-3-phenylbutanamide]: the Emax is 116% and the EC50 was 100 to 500 nM.

Consider `O=C(Cc1ccsc1)Nn1nc(C(F)(F)F)c2ccccc2c1=O` [Example 53, N-[1-oxo-4-(trifluoromethyl)phthalazin-2(1H)-yl]-2-(3-thienyl)acetamide], for which the Emax came to 61% and the EC50 is 1000 to 10000 nM.

In the case of `O=C(Cc1cccs1)Nn1nc(C(F)(F)F)c2ccccc2c1=O` [Example 54, N-[1-oxo-4-(trifluoromethyl)phthalazin-2(1H)-yl]-2-(2-thienyl)acetamide], the Emax came to 84% and the EC50 fell in the range of 1000 to 10000 nM.

Consider `O=C(Cc1ccc(Cl)s1)Nn1nc(C(F)(F)F)c2ccccc2c1=O` [Example 55, 2-(5-chloro-2-thienyl)-N-[1-oxo-4-(trifluoromethyl)phthalazin-2(1H)-yl]acetamide], for which the Emax came out at 72% and the EC50 fell in the range of 500 to 1000 nM.

Regarding `Cc1ccc(CC(=O)Nn2nc(C(F)(F)F)c3ccccc3c2=O)s1` [Example 56, 2-(5-methyl-2-thienyl)-N-[1-oxo-4-(trifluoromethyl)phthalazin-2(1H)-yl]acetamide], the Emax amounted to 51% and the concentration for a half-maximal effect (EC50) was in the range of 1000 to 10000 nM.

For `O=C(Cc1ccccc1)Nn1nc(C(F)(F)F)c2ccccc2c1=O` [Example 57, N-[1-oxo-4-(trifluoromethyl)phthalazin-2(1H)-yl]-2-phenylacetamide], the Emax is 85% and the EC50 is 1000 to 10000 nM.

As for `O=C(Cc1ccc(Cl)c(F)c1)Nn1nc(C(F)(F)F)c2ccccc2c1=O` [Example 59, 2-(4-chloro-3-fluorophenyl)-N-[1-oxo-4-(trifluoromethyl)phthalazin-2(1H)-yl]acetamide], the Emax came out at 90% and the EC50 was 1000 to 10000 nM.

Regarding `CC(C)c1nn(NC(=O)CC23CC4CC(CC(F)(C4)C2)C3)c(=O)c2ccccc12` [Example 60, 2-(3-fluoroadamantan-1-yl)-N-(4-isopropyl-1-oxophthalazin-2(1H)-yl)acetamide], the Emax turned out to be 214% and the EC50 was less than 100 nM.

As for `CC(C)c1nn(NC(=O)CC23CC4CC(CC(O)(C4)C2)C3)c(=O)c2ccccc12` [Example 61, 2-(3-hydroxyadamantan-1-yl)-N-(4-isopropyl-1-oxophthalazin-2(1H)-yl)acetamide], the Emax was found to be 26% and the 50% effective concentration (EC50) was greater than 10000 nM.

With `CC(C)(C)c1nn(NC(=O)CC2CCCC2)c(=O)c2ccccc12` [Example 62, N-(4-tert-butyl-1-oxophthalazin-2(1H)-yl)-2-cyclopentylacetamide], the Emax amounted to 149% and the EC50 was less than 100 nM.

In the case of `CC(C)(C)c1nn(NC(=O)CC(C)(C)c2ccccc2)c(=O)c2ccccc12` [Example 64, N-(4-tert-butyl-1-oxophthalazin-2(1H)-yl)-3-methyl-3-phenylbutanamide], the Emax was 157% and the EC50 was less than 100 nM.

On to `CC(C)(C)c1nn(NC(=O)Cc2ccc(Cl)cc2)c(=O)c2ccccc12` [Example 65, N-(4-tert-butyl-1-oxophthalazin-2(1H)-yl)-2-(4-chlorophenyl)acetamide], for which the Emax came to 151% and the EC50 lay within 100 to 500 nM.

As for `O=C(C[C@@H]1C[C@@H]2CC[C@H]1C2)Nn1nc(C2CCC2)c2ccccc2c1=O` [Example 66, 2-[(1S,2S,4R)-bicyclo[2.2.1]hept-2-yl]-N-(4-cyclobutyl-1-oxophthalazin-2(1H)-yl)acetamide], the Emax was determined as 148% and the EC50 was less than 100 nM.

For the origin of these results see patent publication US8629143B2, “Potassium channel modulators” (AbbVie Inc., priority 2009, dated 2014).
